Tests used:
GPR43 [1] = target: T1, GPR43 (Homo sapiens, UniProt O15552); test: Calcium mobilization assay with probenecid; assay type: cell-based; details: GPR43 stably expressing cells; triggered with sodium acetate at EC80; 2.5 mM probenecid; read-out: GPR43 assay with probenicid IC50
T1 construct: expressed in transfected cells
T1 sequence (O15552 1-330): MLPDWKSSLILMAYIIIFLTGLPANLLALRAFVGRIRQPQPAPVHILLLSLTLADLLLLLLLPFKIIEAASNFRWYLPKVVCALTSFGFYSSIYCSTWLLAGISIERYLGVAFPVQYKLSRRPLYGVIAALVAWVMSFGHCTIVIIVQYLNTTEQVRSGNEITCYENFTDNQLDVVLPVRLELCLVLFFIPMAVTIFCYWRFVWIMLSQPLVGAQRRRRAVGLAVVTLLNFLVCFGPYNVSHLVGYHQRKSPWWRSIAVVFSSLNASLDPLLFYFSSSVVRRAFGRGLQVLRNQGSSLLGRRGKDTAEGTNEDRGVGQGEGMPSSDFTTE
Summary of the method: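 Cells stably expressing GPR43 plated overnight at 37 °C, then loaded 2 h with Calcium 4 dye plus 2.5 mM probenecid. […]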

GPR43 [2] = target: T1, GPR43; test: Calcium mobilization assay without probenecid; assay type: cell-based; details: GPR43 stably expressing cells, triggered with sodium acetate at EC80, read-out: GPR43 assay without probenicid IC50
Procedure: The following assay can be used for determination of GPR43 activation. The assay measures intracellular calcium release induced by activation of GPR43. On day 1, GPR43 stably expressing cells were detached with mild trypsinization (Trypsin, 0.25% with EDTA 4Na, 5× diluted in PBS) centrifuged at 1000 rpm for 5 min and resuspended at 6.000 cells/25 μL medium (DMEM supplemented with 10% FBS, 10 μg/mL puromycin and 1% Pen/Strep). The cells were distributed in poly-D-lysine coated 384 well plates (black with clear bottom, 25 μL/well) and incubated overnight at 37° C. 10% CO2. On day 2, 25 μL of a fluorescent Ca^2+ indicator (Calcium 4 assay; Molecular Devices) was added on top of the cells and incubated for 2 h at 37° C. Subsequently, compounds at increasing concentration (10 μL/well) were added to the plate and incubated for 15 min at 37° C. Finally the cells were triggered with sodium acetate at EC80 concentration (concentration which gives 80% of the activity of the GPR43) and the Ca-flux was measured simultaneously to the trigger injection on a fluorescence plate reader (FlexStation3), this measures the antagonist activity of the compounds. To measure agonist activity of the compounds, compound was added to the well and the Ca-flux was measured simultaneously to the injection of compound.

| Structure (SMILES) | IC50 (GPR43 [1]) | IC50 (GPR43 [2]) |
| --- | --- | --- |
| COCCN(Cc1ccc(Cl)cc1)C(=O)C1(C)CCN1C(=O)Cc1cc(C)cc(C)c1 (centres unmarked) [Compound 56, 1-[2-(3,5-Dimethyl-phenyl)-acetyl]-2-methyl-azetidine-2-carboxylic acid (4-chloro-benzyl)-(2-methoxy-ethyl)-amide] | > 1 µM | > 1 µM |
| CN(Cc1ccc(Cl)cc1)C(=O)C1(C)CCN1C(=O)Cc1ccccc1OCc1ccccc1 (centres unmarked) [Compound 16, 1-[2-(2-Benzyloxy-phenyl)-acetyl]-2-methyl-azetidine-2-carboxylic acid (4-chloro-benzyl)-methyl-amide] | > 1 µM | > 1 µM |
| CCOC(=O)CCCN(Cc1ccc(Cl)cc1)C(=O)C1(C)CCN1C(=O)Cc1csc2ccccc12 (centres unmarked) [Compound 87, 4-[[1-(2-Benzo[b]thiophen-3-yl-acetyl)-2-methyl-azetidine-2-carbonyl]-(4-chloro-benzyl)-amino]-butyric acid ethyl ester] | 0.501 to 1 µM | 0.501 to 1 µM |
| Cc1cc(C)cc(CC(=O)N2CCC2(C)C(=O)N(CC(=O)NS(=O)(=O)C(F)(F)F)Cc2ccc(Cl)cc2)c1 (centres unmarked) [Compound 94, 1-[2-(3,5-Dimethyl-phenyl)-acetyl]-2-methyl-azetidine-2-carboxylic acid (4-chloro-benzyl)-(2-oxo-2-trifluoromethanesulfonylamino-ethyl)-amide] | > 1 µM | > 1 µM |
| Cc1cc(C)cc(CC(=O)N2CC[C@]2(C)C(=O)N(CC(=O)O)Cc2ccc(Cl)cc2)c1 [Compound 82, ((4-Chloro-benzyl)-{(R)-1-[2-(3,5-dimethyl-phenyl)-acetyl]-2-methyl-azetidine-2-carbonyl}-amino)-acetic acid] | 0.101 to 0.5 µM | 0.101 to 0.5 µM |
| Cc1cc(C)cc(CC(=O)N2CCC2(C)C(=O)N(CCC#N)Cc2ccc(Cl)cc2)c1 (centres unmarked) [Compound 77, 1-[2-(3,5-Dimethyl-phenyl)-acetyl]-2-methyl-azetidine-2-carboxylic acid (4-chloro-benzyl)-(2-cyano-ethyl)-amide] | 0.101 to 0.5 µM | > 1 µM |
| Cc1cc(C)cc(CC(=O)N2CCC2(C)C(=O)N(CC(=O)O)Cc2cccc(C)c2)c1 (centres unmarked) [Compound 59, [{1-[2-(3,5-Dimethyl-phenyl)-acetyl]-2-methyl-azetidine-2-carbonyl}-(3-methyl-benzyl)-amino]-acetic acid] | > 1 µM | > 1 µM |
| CN(Cc1ccc(Cl)cc1)C(=O)C1(C)CCN1C(=O)Cc1csc2ccc(Cl)cc12 (centres unmarked) [Compound 92, 1-[2-(5-Chloro-benzo[b]thiophen-3-yl)-acetyl]-2-methyl-azetidine-2-carboxylic acid (4-chloro-benzyl)-methyl-amide] | – | > 1 µM |
| CN(Cc1ccc(Cl)cc1)C(=O)C1(C)CCN1C(=O)Cc1ccc2ccccc2c1 (centres unmarked) [Compound 14, 2-Methyl-1-(2-naphthalen-2-yl-acetyl)-azetidine-2-carboxylic acid (4-chloro-benzyl)-methyl-amide] | – | 0.501 to 1 µM |
| Cc1cc(C)cc(CC(=O)N2CCC2(C)C(=O)N(C)Cc2ccc(Cl)cc2)c1 (centres unmarked) [Compound 3, 1-[2-(3,5-Dimethyl-phenyl)-acetyl]-2-methyl-azetidine-2-carboxylic acid (4-chloro-benzyl)-methyl-amide] | – | > 1 µM |
| Cc1ccc2scc(CC(=O)N3CCC3(C)C(=O)N(C)Cc3ccc(Cl)cc3)c2c1 (centres unmarked) [Compound 93, 1-[2-(5-Methyl-benzo[b]thiophen-3-yl)-acetyl]-2-methyl-azetidine-2-carboxylic acid (4-chloro-benzyl)-methyl-amide] | – | > 1 µM |
| CN(Cc1ccc(Cl)cc1)C(=O)C1(C)CCN1C(=O)Cc1cccc(I)c1 (centres unmarked) [Compound 8, 1-[2-(3-iodo-phenyl)-acetyl]-2-methyl-azetidine-2-carboxylic acid (4-chloro-benzyl)-methyl-amide] | – | 0.501 to 1 µM |
| Cc1cc(C)cc(CC(=O)N2CCC2(C)C(=O)N(CCC(=O)O)Cc2ccc(Cl)cc2)c1 (centres unmarked) [Compound 65, 3-((4-chloro-benzyl)-{1-[2-(3,5-dimethyl-phenyl)-acetyl]-2-methyl-azetidine-2-carbonyl}-amino)-propionic acid] | – | > 1 µM |
